Source: PubChem BioAssay AID248 (DTP/NCI, 2004)
Where “and” joins values, the source holds several entries; their conditions need not be identical. Equal entries are not always repeated. Toxic doses and inconclusive results are not listed. Rule as the data show it: active = T/C of 150% or more; inactive = T/C below 125%.

Tested on: L1210 leukemia ip in BDF1 mice, survival T/C
Assay: NCI In Vivo Anticancer Drug Screen. Data for tumor model L1210 Leukemia (intraperitoneal) in B6D2F1 (BDF1) mice
Conditions: endpoint: mean survival time, higher = longer survival
Method in brief: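 Survival endpoint. Drug-treated group vs vehicle group, expressed as T divided by C. Tumor passaged by transplantation.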

Measured: T/C

NC(Cc1c[nH]c2ccc(N(CCCl)CCCl)cc12)C(=O)O (stereo not given)
active: dose: 0.09 mg/kg/injection, schedule: Q#A X Z (ip), vehicle: acid diluted with saline 167 % of control | dose: 0.13 mg/kg/injection, schedule: Q01DX Z (ip), vehicle: saline 169 % of control | dose: 0.26 mg/kg/injection, schedule: Q01DX Z (ip), vehicle: saline 153 % of control and 157 % of control | dose: 0.39 mg/kg/injection, schedule: Q01DX Z (ip), vehicle: saline 166 % of control | dose: 0.54 mg/kg/injection, schedule: Q01DX Z (ip), vehicle: acid diluted with saline 198 % of control | dose: 0.54 mg/kg/injection, schedule: Q01DX Z (sc), vehicle: acid diluted with saline 160 % of control | dose: 0.58 mg/kg/injection, schedule: Q01DX Z (ip), vehicle: saline 190 % of control | dose: 0.75 mg/kg/injection, schedule: Q01DX009 (ip), vehicle: saline 176 % of control | dose: 0.87 mg/kg/injection, schedule: Q01DX Z (ip), vehicle: saline 211 % of control | dose: 1.0 mg/kg/injection, schedule: Q01DX (oral), vehicle: acid diluted with saline 189 % of control | dose: 1.3 mg/kg/injection, schedule: Q07DX003 (ip), vehicle: acid diluted with saline 155 % of control | dose: 1.5 mg/kg/injection, schedule: Q01DX009 (ip), vehicle: saline 160 % of control and 260 % of control | dose: 1.5 mg/kg/injection, schedule: Q03DX Z (oral), vehicle: acid diluted with saline 183 % of control | dose: 3.75 mg/kg/injection, schedule: Q01DX001 (ip), vehicle: carboxymethylcellulose (CMC) 192 % of control | dose: 5.0 mg/kg/injection, schedule: Q01DX001 (ip), vehicle: saline 295 % of control | dose: 7.5 mg/kg/injection, schedule: Q01DX001 (ip), vehicle: carboxymethylcellulose (CMC) 264 % of control | dose: 10.0 mg/kg/injection, schedule: Q01DX001 (ip), vehicle: saline 270 % of control | dose: 750.0 micrograms/kg/injection, schedule: Q01DX009 (ip), vehicle: saline 207 % of control | dose: 1500.0 micrograms/kg/injection, schedule: Q01DX009 (ip), vehicle: saline 219 % of control
inactive: dose: 0.01 mg/kg/injection, schedule: Q#A X Z (ip), vehicle: acid diluted with saline 124 % of control | dose: 0.02 mg/kg/injection, schedule: Q01DX010 (iv), vehicle: acid diluted with saline 103 % of control | dose: 0.02 mg/kg/injection, schedule: Q01DX Z (ip), vehicle: acid diluted with saline 108 % of control | dose: 0.02 mg/kg/injection, schedule: Q01DX Z (ip), vehicle: saline 119 % of control | dose: 0.02 mg/kg/injection, schedule: Q01DX Z (sc), vehicle: acid diluted with saline 114 % of control | dose: 0.05 mg/kg/injection, schedule: Q07DX Z (ip), vehicle: acid diluted with saline 111 % of control | dose: 0.06 mg/kg/injection, schedule: Q01DX010 (iv), vehicle: acid diluted with saline 108 % of control | dose: 0.06 mg/kg/injection, schedule: Q01DX Z (sc), vehicle: acid diluted with saline 106 % of control | dose: 0.1 mg/kg/injection, schedule: Q03DX Z (oral), vehicle: acid diluted with saline 110 % of control | dose: 0.12 mg/kg/injection, schedule: Q01DX Z (oral), vehicle: acid diluted with saline 102 % of control | dose: 0.12 mg/kg/injection, schedule: Q#A X Z (oral), vehicle: acid diluted with saline 121 % of control | dose: 0.13 mg/kg/injection, schedule: Q01DX Z (oral), vehicle: acid diluted with saline 101 % of control | dose: 0.15 mg/kg/injection, schedule: Q01DX Z (oral), vehicle: saline 96 % of control | dose: 0.16 mg/kg/injection, schedule: Q07DX Z (ip), vehicle: acid diluted with saline 103 % of control | dose: 0.18 mg/kg/injection, schedule: Q01DX009 (ip), vehicle: saline 115 % of control | dose: 0.18 mg/kg/injection, schedule: Q01DX Z (sc), vehicle: acid diluted with saline 120 % of control | dose: 0.19 mg/kg/injection, schedule: Q03DX Z (oral), vehicle: acid diluted with saline 114 % of control | dose: 0.27 mg/kg/injection, schedule: Q#A X Z (ip), vehicle: acid diluted with saline 97 % of control | dose: 0.3 mg/kg/injection, schedule: Q01DX Z (oral), vehicle: saline 100 % of control | dose: 0.38 mg/kg/injection, schedule: Q03DX Z (oral), vehicle: acid diluted with saline 112 % of control | dose: 0.5 mg/kg/injection, schedule: Q03DX Z (oral), vehicle: acid diluted with saline 120 % of control | dose: 0.5 mg/kg/injection, schedule: Q#A X Z (oral), vehicle: acid diluted with saline 107 % of control | dose: 0.6 mg/kg/injection, schedule: Q01DX Z (oral), vehicle: saline 101 % of control | dose: 0.75 mg/kg/injection, schedule: Q03DX Z (oral), vehicle: acid diluted with saline 114 % of control | dose: 0.9 mg/kg/injection, schedule: Q07DX Z (oral), vehicle: acid diluted with saline 114 % of control | dose: 1.0 mg/kg/injection, schedule: Q03DX Z (oral), vehicle: acid diluted with saline 117 % of control | dose: 1.2 mg/kg/injection, schedule: Q01DX Z (oral), vehicle: saline 115 % of control | dose: 1.5 mg/kg/injection, schedule: Q03DX (oral), vehicle: acid diluted with saline 117 % of control | dose: 1.6 mg/kg/injection, schedule: Q01DX Z (sc), vehicle: acid diluted with saline 103 % of control | dose: 1.75 mg/kg/injection, schedule: Q01DX 1 (oral), vehicle: acid diluted with saline 102 % of control and 107 % of control | dose: 1.75 mg/kg/injection, schedule: Q07DX (oral), vehicle: acid diluted with saline 112 % of control | dose: 1.8 mg/kg/injection, schedule: Q07DX Z (oral), vehicle: acid diluted with saline 117 % of control | dose: 1.87 mg/kg/injection, schedule: Q01DX001 (oral), vehicle: carboxymethylcellulose (CMC) 106 % of control | dose: 2.0 mg/kg/injection, schedule: Q01DX (oral), vehicle: acid diluted with saline 102 % of control | dose: 3.5 mg/kg/injection, schedule: Q01DX 1 (oral), vehicle: acid diluted with saline 110 % of control and 124 % of control | dose: 3.5 mg/kg/injection, schedule: Q07DX (oral), vehicle: acid diluted with saline 114 % of control | dose: 3.75 mg/kg/injection, schedule: Q01DX001 (oral), vehicle: carboxymethylcellulose (CMC) 108 % of control | dose: 4.0 mg/kg/injection, schedule: Q01DX (oral), vehicle: acid diluted with saline 106 % of control | dose: 7.0 mg/kg/injection, schedule: Q01DX 1 (oral), vehicle: acid diluted with saline 110 % of control and 124 % of control | dose: 7.0 mg/kg/injection, schedule: Q07DX (oral), vehicle: acid diluted with saline 123 % of control | dose: 7.0 mg/kg/injection, schedule: Q07DX Z (oral), vehicle: acid diluted with saline 116 % of control | dose: 7.5 mg/kg/injection, schedule: Q01DX001 (oral), vehicle: carboxymethylcellulose (CMC) 114 % of control | dose: 8.0 mg/kg/injection, schedule: Q01DX (oral), vehicle: acid diluted with saline 95 % of control | dose: 8.0 mg/kg/injection, schedule: Q03DX Z (oral), vehicle: acid diluted with saline 119 % of control | dose: 14.0 mg/kg/injection, schedule: Q01DX 1 (oral), vehicle: acid diluted with saline 105 % of control and 115 % of control | dose: 14.0 mg/kg/injection, schedule: Q07DX Z (oral), vehicle: acid diluted with saline 107 % of control | dose: 15.0 mg/kg/injection, schedule: Q01DX001 (oral), vehicle: carboxymethylcellulose (CMC) 119 % of control | dose: 16.0 mg/kg/injection, schedule: Q01DX (oral), vehicle: acid diluted with saline 95 % of control | dose: 16.0 mg/kg/injection, schedule: Q01DX Z (oral), vehicle: acid diluted with saline 116 % of control | dose: 20.0 mg/kg/injection, schedule: Q01DX001 (oral), vehicle: saline 119 % of control | dose: 28.0 mg/kg/injection, schedule: Q01DX 1 (oral), vehicle: acid diluted with saline 104 % of control and 118 % of control | dose: 28.0 mg/kg/injection, schedule: Q01DX001 (oral), vehicle: acid diluted with saline 108 % of control and 118 % of control | dose: 28.0 mg/kg/injection, schedule: Q07DX (oral), vehicle: acid diluted with saline 120 % of control | dose: 40.0 mg/kg/injection, schedule: Q01DX001 (oral), vehicle: saline 86 % of control | dose: 56.0 mg/kg/injection, schedule: Q01DX 1 (oral), vehicle: acid diluted with saline 113 % of control and 121 % of control | dose: 56.0 mg/kg/injection, schedule: Q01DX001 (oral), vehicle: acid diluted with saline 117 % of control and 122 % of control | dose: 56.0 mg/kg/injection, schedule: Q07DX (oral), vehicle: acid diluted with saline 123 % of control | dose: 80.0 mg/kg/injection, schedule: Q01DX001 (oral), vehicle: saline 102 % of control | dose: 112.0 mg/kg/injection, schedule: Q01DX001 (oral), vehicle: acid diluted with saline 120 % of control | dose: 168.0 mg/kg/injection, schedule: Q01DX001 (oral), vehicle: acid diluted with saline 122 % of control | dose: 204.0 mg/kg/injection, schedule: Q01DX 1 (oral), vehicle: acid diluted with saline 106 % of control | dose: 204.0 mg/kg/injection, schedule: Q01DX001 (oral), vehicle: acid diluted with saline 107 % of control | dose: 1.0 micrograms/kg/injection, schedule: Q07DX 2 (ip), vehicle: acid diluted with saline 101 % of control | dose: 5.0 micrograms/kg/injection, schedule: Q07DX 2 (ip), vehicle: acid diluted with saline 102 % of control | dose: 16.0 micrograms/kg/injection, schedule: Q07DX 2 (ip), vehicle: acid diluted with saline 117 % of control | dose: 22.0 micrograms/kg/injection, schedule: Q01DX Z (ip), vehicle: saline 104 % of control | dose: 33.0 micrograms/kg/injection, schedule: Q01DX Z (ip), vehicle: saline 107 % of control | dose: 45.0 micrograms/kg/injection, schedule: Q01DX009 (ip), vehicle: saline 109 % of control | dose: 50.0 micrograms/kg/injection, schedule: Q01DX Z (ip), vehicle: saline 107 % of control | dose: 50.0 micrograms/kg/injection, schedule: Q07DX 2 (ip), vehicle: acid diluted with saline 123 % of control | dose: 75.0 micrograms/kg/injection, schedule: Q01DX Z (ip), vehicle: saline 115 % of control
